Among the data in PMC10927987, “Biochemical characterization, structure-guided mutagenesis, and application of a recombinant D-allulose 3-epimerase from Christensenellaceae bacterium for the biocatalytic production of D-allulose” (Frontiers in Bioengineering and Biotechnology, 2024) are Km values, retold here.

The experiment concerns T1, CbDAE.
T1 construct: codon-optimized gene in pET-28a(+) (NdeI/EcoRI), E. coli BL21(DE3), Ni-NTA purified, His tag; mutagenesis template given as pET22b-CbDAE
Briefly: epimerization, HPLC-RI, Michaelis-Menten fit. Type of experiment: biochemical, Christensenellaceae bacterium. The note with it: standard reaction conditions: 1 mM Co2+, 60 °C, 10 min; 5-300 mM substrate. An excerpt: epimerization, HPLC-RI, Michaelis-Menten fit on CbDAE
The term Km denotes the concentration of substrate that gives half-maximal velocity. `OCC1(O)OC[C@@H](O)[C@@H](O)[C@H]1O` (stereo partly drawn) [D-allulose]: the Michaelis-Menten constant (Km) worked out at 44.9 ± 5.1 mM.
The result for `OCC1(O)OC[C@@H](O)[C@H](O)[C@H]1O` (stereo partly drawn) [D-sorbose] reads 61.6 ± 4.8 mM.
The result for `OCC1(O)OC[C@@H](O)[C@H](O)[C@@H]1O` (stereo partly drawn) [D-tagatose] reads 52.7 ± 6.2 mM.
